Experimental data taken from article PMC8068288, “Novel Thiol Containing Hybrid Antioxidant-Nitric Oxide Donor Small Molecules for Treatment of Glaucoma” (Antioxidants, 2021).

How the values were obtained:
[1] = test system: intraocular pressure; assay: IOP lowering in dexamethasone induced ocular hypertensive (OHT) mouse eyes; format: in vivo; conditions: periocular once every week for 4 weeks, baseline 11.85 ± 2.27
Experimental: Mice (C57BL/6J, 12 weeks, n = 3–5) were anesthetized and the periocular injection of dexamethasone acetate (DEX-Ac, 10 mg/mL) or vehicle (20 μL) was administered immediately under the isoflurane over the course of 10 to 15 s. The procedure was performed in both eyes of each mice after it was numbed with proparacaine as reported previously. Mice were treated with DEX-Ac or vehicle once per week for four weeks to achieve the desired IOP elevation. Baseline IOP was measured using tonometer. […] The entire dosing schedule was repeated 3 times in each mouse eye. IOP plots were generated from IOP values obtained from the treated eyes.

[2] = test system: intraocular pressure; set-up: method as in private communication, unpublished result; conditions: monkey eyes; ref private communication, unpublished result; cited from earlier work
[3] = Superoxide anion radical scavenging assay (pyrogallol/WST-1) in buffer; format: biochemical; conditions: for AUC0–2.5 h of % superoxide scavenging response: 1 mM compound, pyrogallol 1 mM; for earliest time of superoxide (O2−) radical scavenging: buffer solution and TM cells; for superoxide radicals scavenged: dose response 1-1000 µM; for AUC0-15 of % superoxide scavenging response: different concentrations 1-1000 µM, 15 minutes time point
Experimental: (§1) The ROS scavenging ratio was determined using a chemical assay where WST-1 was used as superoxide scavenger produced by pyrogallol following a reported protocol. Briefly, the superoxide anion radical scavenging activity was determined spectrophotometrically by measuring the formation of WST-1 formazan at 450 nm. WST-1 (40 µL, 50 µM) was added to the compounds (or corresponding solution) in a final volume of 160 µL in 50 mM ammonium hydrogen carbonate buffer, 0.5 mM EDTA, pH 9.3. Reaction was launched by adding 40 µL 1 mM pyrogallol. The operation was based on the 96-well microplate, and measurement was performed at different time points under 37 °C by Cytation5 Microplate Reader. Baicalein (1 mM) was used as positive control. Compounds SA-2, SA-9, and SA-10 were used in concentrations ranging from 1 µM, 10 µM, 100 µM, and 1000 µM. The superoxide anion radical scavenging ratio % was calculated according to the following formula:Scavenging ratio (%) = A0 − (A1 − A2)/A0 × 100%

[4] = test system: NTM-5 cells; assay: Superoxide scavenging ratio in NTM-5 cell supernatant (pyrogallol assay), with or without TBHP; format: cell-based, human; conditions: for AUC0-3h of superoxide scavenging ratio: NTM-5 cell supernatant, 18 h treatment, 0.1-1000 µM
Experimental: as §1, with “100% […]” for “100%”
(§2) The experiments were repeated twice with four technical replicates.
Figure 2 Superoxide scavenging ability of SA compounds in buffer and cells. (a) The % of superoxide scavenging response from 1 mM concentration of SA-2, SA-9, and SA-10 in pyrogallol (Pyr, 1 mM) induced superoxide induction assay at different time points in buffer. The AUC0–2.5 h for SA-2, SA-9, and SA-10 were 1592 ± 37.87, 1355 ± 42.62, and 2350 ± 69.26, respectively. (b) Comparison of the % ROS scavenging activity of SA-2, SA-9, and SA-10 with control after 15 min of treatment of pyrogallol. (c) The superoxide scavenging ratio (%) after 18 h treatment of 10 µM concentration of SA-2, SA-9, and SA-10 to NTM-5 cell supernatant using pyrogallol induced superoxide induction assay at different time points. (d) The superoxide scavenging ratio (%) of 10 µM concentration of SA-2, SA-9, and SA-10 in NTM-5 cell supernatant. The cells were previously treated with 5.5 mM of TBHP for 30 min followed by SA compounds and incubated for 18 h. Control is untreated cells. Three technical replicates were used for each experiment and all experiments were repeated 2 times. * p < 0.05, ** p < 0.005, *** p < 0.001, **** p < 0.0001, One-way ANOVA for (b), and two-way ANOVA for (c,d).
Figure S1: Superoxide scavenging ability of SA compounds in buffer and cells. a) The % of superoxide scavenging response from different concentrations of SA-2, SA-9 and SA-10 in pyrogallol (1 µM, 10 µM, 100 µM and 1,000 µM) induced superoxide induction assay at 15 minutes time point in buffer solution. The […]
superoxide scavenging ratio (%) after 18h treatment of different concentrations (0.1 µM, 1 µM, 10 µM, 100 µM and 1,000 µM) of SA-2, SA-9 and SA-10 to NTM-5 cell supernatant with or without TBHP (5.5 mM) using pyrogallol induced superoxide induction assay at 3h time point. Control is untreated cells. The cells were previously treated with 5.5 mM of TBHP for 30 minutes followed by SA compounds and TBHP and incubated for 18h. Control is untreated cells. e) The AUC0-3h for SA-2, SA-9 and SA-10 were 18902 ± 2714, […]
for each experiment and all experiments were repeated 2 times. N = 3.
(1 picture or pasted object on this page, not shown here)

[5] = test system: NTM-5 cells; assay: Total nitrite release by Griess assay in NTM-5 cell supernatant; format: cell-based, human; conditions: for NO released in NTM-5 cell supernatants: 28 h at 37 °C; for start of NO release: buffer solution and TM cells
Experimental: (§3) The total nitrite released from the compounds in buffer and in cell supernatant were measured by Griess assay as reported by us previously. In brief, compounds (SA-2, SA-9, and SA-10) in buffer at different concentrations (1 mM, 500 µM, 250 µM 125 µM, 62.5 µM, 31.25 µM, and 15.625 µM) or supernatant collected from Human transformed trabecular meshwork (NTM-5) cells were added to a 96-well plate. 1% Sulphanilamide in 5% phosphoric acid and 0.1% N-1-napthylethylenediamine dihydrochloride (NED) were added to experimental samples sequentially at room temperature and away from light. SIN-1 was used as reference standard. UV Absorbances (Cytation 5) were measured at specific timepoints (0, 5 min, 10 min, 15 min, 30 min, 24 h, and 28 h) at 520 nm.
as §2

[6] = test system: NTM-5 cells; assay: In vitro cytoprotection assay against TBHP (MTT); format: cell-based; conditions: Homo sapiens, TBHP 350 µM, read-out: EC50 of increase in cell viability (cytoprotection)
Experimental: After 24 h of treatment, cell proliferation was measured using MTT assay. All the experiments are done in duplicate with four experimental replicates.

[7] = test system: NTM-5 cells; assay: In vitro peroxynitrite measurement assay; format: cell-based, human; conditions: 0.1 µM and 1 mM, with or without TBHP 350 µM
Experimental: Human transformed trabecular meshwork (NTM-5) cells (20,000 cells/well/90 µL) were seeded in 96-well plates (Griener bio-one black plate) and stained with 10 µL of 10X Peroxynitrite Sensor Green solution for 1 h. […] SIN-1 was used as a positive control. Detection of peroxynitrite was done using Peroxynitrite Assay Kit (abcam-ab233468-cell based). Fluorescence signals were measured using a microplate reader (Cytation5) at Ex/Em = 485/530 nm at time intervals (15 min, 30 min, 1 h, 2 h, and 3 h). The experiments were done in duplicates.

[8] = set-up: method as in PMID 26832784; conditions: PBS 7.4; cited from earlier work
[9] = test system: NTM-5 cells; assay: In vitro cell viability (MTT) assay; conditions: for cytotoxicity: NTM-5 cells, 24 h, up to 1000 µM
Experimental: NTM-5 cells (6000 cells/well) were seeded in 96-well plates to confluency. […] The cell viability and proliferation were measured using MTT assays (CellTiter 96® AQueous One Solution Cell Proliferation Assay, Promega Madison, WI, USA) following manufacturer instruction. The experiments were repeated twice with four technical replicates.

[10] = Hypochlorous acid (HOCl) radical scavenging assay (TNB) in buffer; format: biochemical
Experimental: This assay used the redox reaction between 5-thio-2-nitrobenzoic acid (TNB) and HOCl to form dithio-TNB. Using the method described previously, we assessed the % TNB remaining with or without treatment with SA compounds. Compounds SA-2, SA-9, and SA-10 were used in concentrations ranging from 0.1 µM, 1 µM, 10 µM, 100 µM, and 1000 µM. Lipoic acid (1 mM) was used as positive control.

[11] = Total nitrite/NO release by Griess assay in buffer (aqueous stability); format: physicochemical; conditions: even after 3 days
Experimental: as §3, with “UV Absorbances (Cytation 5) were measured at specific timepoints (0, 5 min, 10 min, 15 min, 30 min, 24 h, and 28 h) at 520 nm.” left out

[12] = test system: intraocular pressure; set-up: method as in PMID 8675417; conditions: rabbit eyes, 20 mM, intraocular injection; cited from earlier work

SMILES | AUC0–2.5 h of % superoxide scavenging response ([3]; buffer) | earliest time of superoxide (O2−) radical scavenging [3] [min] | superoxide radicals scavenged ([3]; buffer) | AUC0-15 of % superoxide scavenging response ([3]; buffer) | AUC0-3h of superoxide scavenging ratio ([4]; with TBHP 5.5 mM) | AUC0-3h of superoxide scavenging ratio ([4]; without TBHP) | NO released in NTM-5 cell supernatants [5] | start of NO release [5] [h] | EC50 [6] [µM] | ONOO− radical formation [7] | cytotoxicity [9] | further results
CC(=O)OCC(=O)[C@@]1(O)[C@H](C)C[C@H]2[C@@H]3CCC4=CC(=O)C=C[C@]4(C)[C@@]3(F)[C@@H](O)C[C@@]21C [Dexamethasone, dexamethasone acetate] | – | – | – | – | – | – | – | – | – | – | – | IOP after dexamethasone injection [1]: 21.9 ± 5.92 mm/Hg
CCOC(=O)[N-]c1cn(N2CCOCC2)n[o+]1 [Molsidomine, molsidomine] | – | – | – | – | – | – | – | – | – | – | – | NO release profile or IOP lowering activity [2]: no NO release profile or IOP lowering activity
CC1(C)CC([n+]2cc([NH-])on2)CC(C)(C)N1O [SA-2, reference compound] | 1592 ± 37.87 | 7 | 16–40% | 11604± 815.9 | 18285 ± 3960 | 18902 ± 2714 | dose dependently | > 24 | 5.2 | produced less | no cytotoxicity | half-life in PBS7.4 [8]: < 1 h
Cl.[NH-]c1c[n+](C2CCS(=O)(=O)CC2)no1 [SA-10, (3-(1,1-dioxidotetrahydro-2H-thiopyran-4-yl)-1,2,3-oxadiazol-3-ium-5-yl) amide hydrochloride] | 2350 ± 69.26 | 7 | 16–40% | 20433± 3128 | 17893 ± 2714 | 21444 ± 1877 | dose dependently | > 24 | 0.0103 | not as efficacious as SA-9 | no cytotoxicity | fold more potent than SA-2 in superoxide scavenging ([3]; 1 mM, buffer, 15 min after pyrogallol): 2.5 fold; superoxide scavenging ability (ratio) ([4]; 10 µM for 18 h, NTM-5 cells insulted with TBHP, TBHP alone 2.5%): 20–25%; fold prevention of the decrease in superoxide scavenging ability vs TBHP alone ([4]; 10 µM for 18 h, TBHP-treated NTM-5 cells): ~ 10 fold; fold more potent than lipoic acid in HOCl scavenging ([10]; 0.1 µM vs. 1 mM lipoic acid, 30 min): 10,000 fold; duration of HOCl scavenging effect ([10]; 0.1 µM–1000 µM in buffer): > 1 h; NO release in buffer [11]: did not observe any NO release
[NH-]c1c[n+](N2CCOCC2)no1 [SIN-1, linsidomine, reference compound] | – | – | – | – | – | – | – | – | – | significantly higher level | – | duration of IOP reduction [12]: up to 3 h
CC(C)(C)OO [TBHP, t-butyl hydrogen peroxide, reference compound] | – | – | – | – | – | – | – | – | – | – | – | EC50 ([9]; Homo sapiens, read-out: half-maximal effective concentration (EC50) dose of TBHP): 350 µM
